Experimental data from PubChem BioAssay (NCI).
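Protocol summary: plate cells (96-well), add compound at 5 concentrations, incubate 48 h, interpolate endpoints linearly. GI50 is the concentration that inhibits growth by half. TGI marks complete inhibition of growth.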

What was measured:
Assay in all cases: NCI anticancer screen, dose series, 48 h
U251 CNS = system: U251 CNS
HT29 colon = system: HT29 colon
SK-MEL-28 melanoma = system: SK-MEL-28 melanoma
SF-295 CNS = system: SF-295 CNS
NCI-H522 lung = system: NCI-H522 lung
HCT-116 colon = system: HCT-116 colon
IGROV1 ovarian = system: IGROV1 ovarian
TK-10 renal = system: TK-10 renal
MOLT-4 leukemia = system: MOLT-4 leukemia
KM12 colon = system: KM12 colon

Structure (SMILES) | TGI (U251 CNS) | TGI (HT29 colon) | TGI (SK-MEL-28 melanoma) | TGI (SF-295 CNS) | TGI (NCI-H522 lung) | TGI (HCT-116 colon) | TGI (IGROV1 ovarian) | TGI (TK-10 renal) | TGI (MOLT-4 leukemia) | TGI (KM12 colon) | GI50 (U251 CNS) | GI50 (HT29 colon) | GI50 (KM12 colon) | GI50 (SK-MEL-28 melanoma) | GI50 (SF-295 CNS) | GI50 (NCI-H522 lung) | GI50 (HCT-116 colon) | GI50 (IGROV1 ovarian) | GI50 (TK-10 renal)
Cc1cccc2c1CC1(Cc3c(C)cccc3C1=O)C2=O | > 100 µM | > 100 µM | > 100 µM | > 100 µM | > 100 µM | > 100 µM | > 100 µM | > 100 µM | > 100 µM |  |  |  |  |  |  |  |  |  | 
CCCCCC(=O)OC[n+]1ccc(-c2c(COC(=O)NC(C)C)c(COC(=O)NC(C)C)c3n2CCC3)cc1 | > 100 µM | > 100 µM | > 100 µM | > 100 µM | > 100 µM | > 100 µM | > 100 µM | > 100 µM | > 100 µM | > 100 µM |  |  |  |  |  |  |  |  | 
O=C(Nc1ccccn1)c1cc2c(cc1Cl)Sc1nccn1S2(=O)=O | > 100 µM | > 100 µM | > 100 µM | > 100 µM | > 100 µM | > 100 µM | 76.4 µM | > 100 µM | > 100 µM | > 100 µM |  |  |  |  |  |  |  |  | 
COC(=O)C1=C(C(=O)OC)C2CCC1CC2=O (centres undefined) | > 100 µM | > 100 µM | > 100 µM | > 100 µM | > 100 µM | > 100 µM | > 100 µM | > 100 µM | > 100 µM | > 100 µM |  |  |  |  |  |  |  |  | 
Cc1cn(C2CC(/[N+]([O-])=N\Nc3ccc([N+](=O)[O-])cc3)C(CO)O2)c(=O)[nH]c1=O (centres undefined) | > 100 µM | > 100 µM | > 100 µM | > 100 µM | > 100 µM | > 100 µM | > 100 µM | > 100 µM | > 100 µM | > 100 µM |  |  |  |  |  |  |  |  | 
CCOC(=O)C(C(=O)OCC)C(=S)NC1OC(COC(C)=O)C(OC(C)=O)C(OC(C)=O)C1OC(C)=O (centres undefined) | > 100 µM | > 100 µM | > 100 µM | > 100 µM | > 100 µM | > 100 µM | > 100 µM |  | > 100 µM | > 100 µM |  |  |  |  |  |  |  |  | 
COc1ccc(-c2c3c(n(C4OC(COC(C)=O)C(OC(C)=O)C(OC(C)=O)C4OC(C)=O)c(=S)c2C#N)CCCC3)cc1 (centres undefined) | > 100 µM | > 100 µM | > 100 µM | > 100 µM | > 100 µM | > 100 µM | > 100 µM | > 100 µM | > 100 µM | > 100 µM |  |  |  |  |  |  |  |  | 
CC1(C)C/C=C\CCC(O)C(O)CCC(C)(C)C1=O (centres undefined) | > 100 µM | > 100 µM | > 100 µM | > 100 µM | > 100 µM | > 100 µM | > 100 µM | > 100 µM | > 100 µM | > 100 µM |  |  |  |  |  |  |  |  | 
CCCCCCCCC[C@@H]1C[C@H](O)[C@H](Cc2ccccc2)N1C(=O)OC(C)(C)C | 30.2 µM | 31.5 µM | 34.9 µM | 30.1 µM | 30 µM | 31.9 µM | 33.3 µM | 29.2 µM | > 100 µM | 35.2 µM |  |  |  |  |  |  |  |  | 
COc1ccc(-c2cc(-c3ccncc3)nc(N)c2-c2ccc(F)cc2)cc1 | > 100 µM | > 100 µM |  | > 100 µM | 27.1 µM | 51.7 µM | > 100 µM | > 100 µM | > 100 µM | > 100 µM |  |  |  |  |  |  |  |  | 
NCCCCNCCCNC(=O)c1csc(-c2nc(CCN)sc2Cl)n1 | > 100 µM | > 100 µM | > 100 µM | > 100 µM |  | > 100 µM | > 100 µM | > 100 µM | > 100 µM | > 100 µM |  |  |  |  |  |  |  |  | 
ClC1(Cl)C2CCOC21n1cnc2ccccc21 (centres undefined) | > 100 µM | > 100 µM | > 100 µM | > 100 µM | > 100 µM | > 100 µM | > 100 µM |  | > 100 µM | > 100 µM |  |  |  |  |  |  |  |  | 
O=C1CSC2(CC(/C=C/c3ccccc3[N+](=O)[O-])=NN2c2cccc(S(=O)(=O)O)c2)N1c1nc2ccccc2s1 (centres undefined) | 33.6 µM | 69.1 µM | > 75 µM |  | 22.1 µM | > 75 µM | 36.1 µM | 29.4 µM | 52.4 µM | 27 µM |  |  |  |  |  |  |  |  | 
O=[N+]([O-])c1ccc(N/N=C\c2ccc(O)cc2O)nc1 | > 100 µM | > 100 µM | > 100 µM | > 100 µM | > 100 µM | > 100 µM | > 100 µM | > 100 µM |  | > 100 µM | 2.08 µM | 5.32 µM | 1.91 µM | 5.03 µM | 2.96 µM | 10.8 µM | 2.11 µM | 3.4 µM | 5.09 µM
COc1ccc(/C=C2\NC(=S)N(CN3CCOCC3)C2=O)cc1 | > 100 µM | > 100 µM | > 100 µM | > 100 µM |  | > 100 µM | > 100 µM | > 100 µM | > 100 µM | > 100 µM |  |  |  |  |  |  |  |  | 
CSc1c(C#N)c(=O)n(N)c2n[nH]c(C)c12 | > 100 µM | > 100 µM | > 100 µM |  | > 100 µM | > 100 µM |  | > 100 µM | > 100 µM | > 100 µM |  |  |  |  |  |  |  |  | 
COc1ccccc1N1C(=O)/C(=C\c2ccccc2)SC1c1cc(OC)c(OC)c(OC)c1 (centres undefined) | 74.2 µM | > 100 µM | > 100 µM | > 100 µM | 74.3 µM | > 100 µM |  | > 100 µM | > 100 µM | > 100 µM |  |  |  |  |  |  |  |  | 
COC(=O)CCC(=O)c1ccc2c(c1)CC1(Cc3ccccc3C1)C2 | > 100 µM | 43.9 µM |  | > 100 µM | > 100 µM | > 100 µM | > 100 µM | > 100 µM | 52.6 µM | > 100 µM |  |  |  |  |  |  |  |  | 
O=[N+]([O-])c1cnccc1-n1nnc2ccccc21 | > 81.8 µM | > 100 µM | 48.4 µM | > 74.7 µM | 38.5 µM | > 100 µM | 47.6 µM |  | > 75.7 µM | 40.7 µM |  |  |  |  |  |  |  |  | 
COc1cc2oc(=O)cc(C)c2c(OC)c1OC | > 100 µM | > 100 µM | > 100 µM | > 100 µM |  | > 100 µM | > 100 µM | > 100 µM | > 100 µM | > 100 µM |  |  |  |  |  |  |  |  | 
CNC(=S)c1nnsc1N | > 100 µM |  | > 100 µM | > 100 µM | > 100 µM | > 100 µM | > 100 µM | > 100 µM | > 100 µM | > 100 µM |  |  |  |  |  |  |  |  | 
